In patent US10130604B2, “Composition and method for treating neurodegenerative disease” (priority 2012, dated 2018):
Like-named read-outs stand apart in the source and are kept apart here.

How the values were obtained:
DJ-1 [1] = conditions: C57BL/6 mice, drinking water, two weeks, vs control
Method: (§1) Cells were lysed in a dissociation buffer containing 50 mM Tris-HCl, 10 mM NaCl, 0.1% Triton X-100 plus protease inhibitor cocktail (Roche). The mouse brain tissues were dissected and quickly frozen in dry ice. Tissues were thawed on ice and homogenized in dissociation buffer with protease inhibitors (Roche). Protein concentration was determined by the BCA method (Pierce). Fifty μg of protein was separated on 10% SDSPAGE gel and transferred to a nitrocellulose membrane. After blocking nonspecific binding, membranes were incubated with antibodies to DJ-1 (1:5000, Chemicon), α-synuclein (1:3000, Transduction Laboratories), TH (1;2000, PelFreez), and β-actin (1:4000, Sigma). Blots were incubated with HRP-conjugated secondary antibody (1:10,000; Jackson Immune Research), followed by chemiluminescent detection (Perkin Elmer life Sciences) (31,38).
(§2) Adult C57BL/6 mice (4-6 months old) were treated with PB and SB in drinking water for 14 days. The PB and SB were dissolved in water at concentrations of 500, 1000, 1500, and 2000 mg/L. Mice typically drink 4-5 ml of water per day, and their drinking volumes were not affected by the addition of PB or SB. Control animals received water with sodium chloride added to the same molarity as the sodium in the drug-treated animals. […]

DJ-1 [2] = conditions: N27 cells, two days treatment, Western blot
Method: Dopaminergic cells derived from embryonic day 12 rat mesencephalon and immortalized with the SV40 large T antigen designated 1RB3AN27, (N27 cells) were used (37). […] Cells were lysed in a dissociation buffer containing 50 mM Tris-HCl, 10 mM NaCl, 0.1% Triton X-100 plus protease inhibitor cocktail (Roche). […] Protein concentration was determined by the BCA method (Pierce). Fifty μg of protein was separated on 10% SDSPAGE gel and transferred to a nitrocellulose membrane. […] Blots were incubated with HRP-conjugated secondary antibody (1:10,000; Jackson Immune Research), followed by chemiluminescent detection (Perkin Elmer life Sciences) (31,38).

α-synuclein = conditions: C57BL/6 mice, drinking water, two weeks
Method: as §1, §2

DJ-1 [3] = conditions: HEK293 reporter cells, 48 hr treatment
Method: Cells were lysed in a dissociation buffer containing 50 mM Tris-HCl, 10 mM NaCl, 0.1% Triton X-100 plus protease inhibitor cocktail (Roche). […] Protein concentration was determined by the BCA method (Pierce). Fifty μg of protein was separated on 10% SDSPAGE gel and transferred to a nitrocellulose membrane. After blocking nonspecific binding, membranes were incubated with antibodies to DJ-1 (1:5000, Chemicon), α-synuclein (1:3000, Transduction Laboratories), TH (1;2000, PelFreez), and β-actin (1:4000, Sigma). Blots were incubated with HRP-conjugated secondary antibody (1:10,000; Jackson Immune Research), followed by chemiluminescent detection (Perkin Elmer life Sciences) (31,38).
The luciferase assay was based on the pGLuc-Basic vector (NEB). The human DJ-1 2 kb promoter area was amplified by PCR using genomic DNA from HEK293 cells. The human DJ-1 promoter was then cloned into the pGLuc-Basic vector, and that reporter vector was transfected into HEK293 cells. G418 (200 μg/ml) was applied to the cultures, and resistant clones were selected and assayed for luciferase activity. […] Culture medium samples (20 μl) were incubated with Gaussia luciferase assay substrate (NEB), and luminescence was measured in a 96-well plate reader (BioTek Synergy HT Multi-Mode microplate reader).

human DJ-1 promoter = assay: Human DJ-1 promoter-luciferase reporter assay in HEK293 cells; format: cell-based; conditions: 48 hr treatment
Source text: The human DJ-1 2 kb promoter area was amplified by PCR using genomic DNA from HEK293 cells. The human DJ-1 promoter was then cloned into the pGLuc-Basic vector, and that reporter vector was transfected into HEK293 cells.

[4] = system: Y39C α-synuclein transgenic mice; conditions: 1000 mg/L drinking water, 6 and 12 weeks
Method: The [MUT] α-synuclein transgenic mice were divided into younger (6-8 months=Young Tg) and older (10-12 months=Old Tg) groups. Each group received PB (1000 mg/L, 5.4 mM) or vehicle (NaCl) in the drinking water for 3 months. Animals were tested for rotarod and water maze performance after 6-weeks and 12-weeks of treatment. Spatial learning was assessed using the Morris water maze. The maze included a circular tank (120 cm in diameter) filled to 10 cm below the edge of the tank with 27° C. water that was made opaque by the addition of non-toxic black ink. A circular escape platform (10 cm in diameter) was located 1 cm below the surface of the water in a constant location in the northwest quadrant of the tank. Mice were first acclimated to the maze during three trial habituation sessions. Each testing session consisted of three consecutive days with four trials per day. The platform was invisible in the pool, and mice were allowed to swim for 60 sec before being returned to the home cage. The latency from all training and testing sessions was collected.

dopamine neurons = conditions: vs MPTP alone
Method: Treatment with PB continued after MPTP injection. […] One week after MPTP lessoning, mouse brain tissues were dissected for Western blot and HPLC analysis. Mouse striatum was frozen in dry ice, sonicated in ice-cold 0.2 m perchloric acid and centrifuged at 15,000 g for 15 min at 4° C. An aliquot (5 μL) of the supernatant solution was analyzed by HPLC equipped with an electrochemical detector (CoulArray system ESA Model 5600; ESA, Boston, Mass., USA), a pump (ESA Model 580) set at 1.5 mL/min, and a reverse-phase C18 column (3 μm, 100 Å 4.6 mm, Waters, Milford, Mass., USA). The mobile phase was composed of 100 mm citric acid, 2% methanol, 1 mm EDTA and 5 mg/L sodium octyl sulfate (pH 3.0).

N27 cells [5] = system: N27 cells
[6] = cited from earlier work
Nrf2 = conditions: N27 dopamine neurons
N27 cells [7] = conditions: shDJ-1 N27 cells; H2O2 75 or 100 μM, 6-OHDA 60 or 80 μM
[8] = system: Y39C α-synuclein transgenic mice; conditions: 1000 mg/L drinking water, 6 and 12 weeks; remark: listed apart in the source
Method: The [MUT] α-synuclein transgenic mice were divided into younger (6-8 months=Young Tg) and older (10-12 months=Old Tg) groups. Each group received PB (1000 mg/L, 5.4 mM) or vehicle (NaCl) in the drinking water for 3 months. Animals were tested for rotarod and water maze performance after 6-weeks and 12-weeks of treatment. Mice were tested for their ability to run on a 3 cm diameter rotating rod (rotarod) at speeds ranging from 3 to 33 rpm. The protocol consisted of two phases: habituation (Day 1) and rotated training/testing (Days 2 to 5). During habituation on Day 1, the mice were trained to remain on the rotarod at 3 rpm. […] Each test day, the speed was increased, reaching 33 rpm by Day 5. The time the mice spent on the rotarod without falling was recorded for each trial.

Vamp2 = conditions: A53T human α-synuclein overexpression plus phenylbutyrate
N27 cells [9] = conditions: two days pretreatment, then A53T α-synuclein adenovirus two days
[10] = system: Y39C-α-synuclein transgenic mice; assay: Rotarod test in Y39C-α-synuclein transgenic mice treated with glycerol phenylbutyrate; format: in vivo, mouse
Method: Transgenic mice were genetically programmed from birth to develop a “Parkinson-Plus” condition by depositing an abnormal form of a protein called Y39C-α-synuclein in neurons of the brain under control of the Thy1 promoter (see Zhou et al., J. Biol. Chem., 2008, 283, 9863-70). […] After 6 weeks of daily treatment, animals were placed on a rotating rod (Rotarod) at different speeds for up to 5 minutes. Animals which could not keep up with the turning rod fell off. The time they were able to stay on the rod was noted. […] These differences were statistically significant at the higher speeds, 21 and 26 rpm. At the highest speed, 33 rpm, all animals fell off the rod after about 50 seconds.

[11] = gut; cited from earlier work
[12] = 1000 mg/L drinking water, Western blot

CCCC(=O)[O-].[Na+] [sodium butyrate]
brain DJ-1 levels (DJ-1 [1]): significantly increased DJ-1 levels
DJ-1 protein levels (DJ-1 [2]): 300 % of control
α-synuclein concentrations in brain (α-synuclein): not changed
DJ-1 protein levels (DJ-1 [3]): increased
luciferase activity (human DJ-1 promoter): increased luciferase activity

O=C([O-])CCCc1ccccc1.[Na+] [sodium phenylbutyrate]
water maze performance, Young Tg mice [4]: did not change water maze performance
water maze function, Old Tg mice ([4]; vs vehicle): prevented the age-related decline in water maze function
striatal dopamine levels (HPLC) (dopamine neurons; 1000 mg/L drinking water two weeks before MPTP): significantly increased striatal dopamine levels
DJ-1 levels in striatum (dopamine neurons; [12]): significantly increased
tyrosine hydroxylase protein levels in striatum (dopamine neurons; [12]): increased
numbers of TH positive dopamine neurons in the substantia nigra (dopamine neurons; 1000 mg/L drinking water): significantly higher numbers of TH positive dopamine neurons
increase in Lamp2 gene expression, with A53T (Lamp2; A53T expression plus phenylbutyrate): 400 fold
increase in Lamp2 expression (Lamp2; N27 dopamine neurons, drug alone): about 30 fold
increase in Lamp2 expression, pretreatment followed by H2O2 (Lamp2; pretreatment 48 hr, then H2O2): 200 fold
cell viability in naïve N27 cells (N27 cells [5]; H2O2 75 or 100 μM, 6-OHDA 60 or 80 μM): significantly improved cell viability
cell survival (N27 cells [5]; cells exposed to H2O2 and A53T, not shown): substantially better
half-life in vivo [6]: 50 min
increase in Nrf2 mRNA (Nrf2): 50 fold
neuroprotective effect against H2O2 and 6-OHDA-induced toxicity after DJ-1 knockdown (N27 cells [7]): effectively abolished the neuroprotective effect
luciferase activity (human DJ-1 promoter): increased luciferase activity
motor function (rotarod), Young Tg mice [8]: did not change motor function
motor function (rotarod), Old Tg mice ([8]; vs vehicle): significantly improved motor function
Vamp2 overexpression, A53T with addition of phenylbutyrate (Vamp2): 200 fold
cell viability after A53T mutant α-synuclein expression (N27 cells [9]): increased cell viability
number of cells with α-synuclein aggregates (N27 cells [9]): reduced the number of cells with α-synuclein aggregates

O=C(CCCc1ccccc1)OCC(COC(=O)CCCc1ccccc1)OC(=O)CCCc1ccccc1 [glycerol phenylbutyrate, Glycerol phenylbutyrate]
time able to stay on the rotating rod ([10]; 6 weeks daily treatment, vs glycerol, significant at 21 and 26 rpm): able to stay on the rod longer
time until animals fell off the rod at the highest speed ([10]; 33 rpm, all animals): about 50 seconds
metabolism of the pro-drug [11]: metabolized in the gut to produce the active compound phenylbutyrate
